Test results from US5891454A, “Anti-cancer drug and special tumor necrotizing agent” (Wu; Alexander, priority 1997, dated 1999).
“And” between values parts separate entries of the source, which are not always exact repeats. Equal entries are not always repeated.

How the values were obtained:
[1] = system: mouse transplanted liver tumor; experiment: Anti-tumor effect on mouse transplanted liver tumor (I.M.); type: in vivo; details: CTX 18.0 mg/kg/d x10
Excerpt: (§1) A solvent blank (i.e., the specifically designed solution illustrated in Table 1), a saline blank as a […] control are used as controls for the in vivo tests. As per the Drug Administration Law of the People's Republic of China, and the rules governing observation of the pharmaco-dynamic study of the therapy action, the tumors were surgically removed from tumor infected mice and were homogenized to form suspensions followed by filtration to make a suspension solution at 1×10^6 -10^7 cell/ml. The suspension was injected (i.e., 0.2 ml per mice) into the test mice for tumor growth until the transplanted tumor cells were established and grew up to a size of 0.5×0.5 cm. […] At the end of the in vivo tests, several parameters such as mouse body weight, average tumor weight and percentage of tumor inhibition, are determined.
(§2) % inhibition rate=(average tumor weight of the solvent group or
(§3) tumor rate of the solvent group

mouse S-180 sarcoma = experiment: Anti-tumor effect on mouse transplanted sarcoma S-180 (I.M.); type: in vivo; details: CTX 18.0 mg/kg/d x10
Excerpt: as §1, §2, §3

Solubility in water = type: physicochemical; details: water or a water-based solution
skin fungal diseases = details: 7-8% solution by weight with propylene glycol; cited from earlier work
[2] = P <0.01 vs saline control, three experiments

Structure (SMILES)	Anti-tumor inhibit rate [1, 2]	Body weight final ([1]; outset 19.9, 20.3, 20.9 in three experiments, in g (unit assumed))	Ave. weight of tumor (x + SD) ([1]; three experiments)	Anti-tumor inhibit rate (mouse S-180 sarcoma; [2])	Body weight final (mouse S-180 sarcoma; outset 22.4, 22.6, 19.3 in three experiments, in g (unit assumed))	Ave. weight of tumor (x ± SD) (mouse S-180 sarcoma; three experiments)	dissolution in water (Solubility in water)	topical anti-fungal activity (skin fungal diseases)
O=P1(N(CCCl)CCCl)NCCCO1 (centres unmarked) [CTX]	40.7% and 46.2% and 60.0%	27.9 and 28.5	1.81 ± 0.22 g and 1.57 ± 0.63 g and 0.94 ± 0.41 g	51.6% and 53.3% and 52.5%	30.9 and 26.4	1.37 ± 0.47 g and 1.29 ± 0.43 g and 1.14 ± 0.28 g		
Cc1ccc(S(N)(=O)=O)cc1 [para-toluene sulfonamide]							not readily dissolved in water or in a water-based solution	highly effective
